Laboratory results: publication PMC9583322, “Vicinal Diaryl-Substituted Isoxazole and Pyrazole Derivatives with In Vitro Growth Inhibitory and In Vivo Antitumor Activity” (ACS Omega, 2022)

What was measured:
Experiment in all cases: NCI-60 single-dose screen
Type in all cases: cell-based
[1] = system: A498; conditions: Homo sapiens, A498, Renal Cancer, read-out: % Growth Inhibition (GI%)
Experimental: (§1) Moreover, in vitro single-dose anticancer screening of 11 and 85 at 10 μM was performed utilizing the stable panel of 60 cell lines comprising 9 different cancer types at the National Cancer Institute (NCI) under the Developmental Therapeutics Program (Table S1).[31]

[2] = system: A549/ATCC; conditions: Homo sapiens, Non-Small Cell Lung Cancer, read-out: % Growth Inhibition (GI%)
Experimental: as §1

[3] = system: CCRF-CEM; conditions: Homo sapiens, Leukemia, read-out: % Growth Inhibition (GI%)
Experimental: as §1

[4] = system: COLO 205; conditions: Homo sapiens, COLO 205, Colon Cancer, read-out: % Growth Inhibition (GI%)
Experimental: as §1

[5] = system: DU-145; conditions: Homo sapiens, DU-145, Prostate Cancer, read-out: % Growth Inhibition (GI%)
Experimental: as §1

[6] = system: EKVX; conditions: Homo sapiens, Non-Small Cell Lung Cancer, read-out: % Growth Inhibition (GI%)
Experimental: as §1

[7] = system: HCC-2998; conditions: Homo sapiens, HCC-2998, Colon Cancer, read-out: % Growth Inhibition (GI%)
Experimental: as §1

[8] = system: HCT-116; conditions: Homo sapiens, HCT-116, Colon Cancer, read-out: % Growth Inhibition (GI%)
Experimental: as §1

[9] = system: HL-60 (TB); conditions: Homo sapiens, Leukemia, read-out: % Growth Inhibition (GI%)
Experimental: as §1

[10] = system: HOP-62; conditions: Homo sapiens, HOP-62, Non-Small Cell Lung Cancer, read-out: % Growth Inhibition (GI%)
Experimental: as §1

[11] = system: HOP-92; conditions: Homo sapiens, HOP-92, Non-Small Cell Lung Cancer, read-out: % Growth Inhibition (GI%)
Experimental: as §1

[12] = system: HS 578T; conditions: Homo sapiens, Breast Cancer, read-out: % Growth Inhibition (GI%)
Experimental: as §1

[13] = system: HT29; conditions: Homo sapiens, HT-29, HT29, Colon Cancer, read-out: % Growth Inhibition (GI%)
Experimental: as §1

[14] = system: IGROV1; conditions: Homo sapiens, IGROV-1, IGROV1, Ovarian Cancer, read-out: % Growth Inhibition (GI%)
Experimental: as §1

[15] = system: K-562; conditions: Homo sapiens, K562, K-562, Leukemia, read-out: % Growth Inhibition (GI%)
Experimental: as §1

[16] = system: LOX-IMVI; conditions: Homo sapiens, Melanoma, read-out: % Growth Inhibition (GI%)
Experimental: as §1

[17] = system: MCF7; conditions: Homo sapiens, MCF7, Breast Cancer, read-out: % Growth Inhibition (GI%)
Experimental: as §1

[18] = system: MDA-MB-435; conditions: Homo sapiens, MDA-MB-435, Melanoma, read-out: % Growth Inhibition (GI%)
Experimental: as §1

[19] = system: MOLT-4; conditions: Homo sapiens, MOLT-4, Leukemia, read-out: % Growth Inhibition (GI%)
Experimental: as §1

[20] = system: NCI-H226; conditions: Homo sapiens, NCI-H226, Non-Small Cell Lung Cancer, read-out: % Growth Inhibition (GI%)
Experimental: as §1

[21] = system: NCI-H23; conditions: Homo sapiens, NCI-H23, Non-Small Cell Lung Cancer, read-out: % Growth Inhibition (GI%)
Experimental: as §1

[22] = system: NCI-H322M; conditions: Homo sapiens, Non-Small Cell Lung Cancer, read-out: % Growth Inhibition (GI%)
Experimental: as §1

[23] = system: NCI-H460; conditions: Homo sapiens, NCI-H460, Non-Small Cell Lung Cancer, read-out: % Growth Inhibition (GI%)
Experimental: as §1

[24] = system: NCI-H522; conditions: Homo sapiens, NCI-H522, Non-Small Cell Lung Cancer, read-out: % Growth Inhibition (GI%)
Experimental: as §1

[25] = system: NCI/ADR-RES; conditions: Homo sapiens, Ovarian Cancer, read-out: % Growth Inhibition (GI%)
Experimental: as §1

[26] = system: OVCAR-5; conditions: Homo sapiens, OVCAR-5, Ovarian Cancer, read-out: % Growth Inhibition (GI%)
Experimental: as §1

[27] = system: OVCAR-8; conditions: Homo sapiens, OVCAR-8, Ovarian Cancer, read-out: % Growth Inhibition (GI%)
Experimental: as §1

[28] = system: RXF 393; conditions: Homo sapiens, RXF 393, Renal Cancer, read-out: % Growth Inhibition (GI%)
Experimental: as §1

[29] = system: SF-268; conditions: Homo sapiens, SF-268, CNS Cancer, read-out: % Growth Inhibition (GI%)
Experimental: as §1

[30] = system: SK-MEL-28; conditions: Homo sapiens, SK-MEL-28, Melanoma, read-out: % Growth Inhibition (GI%)
Experimental: as §1

[31] = system: SK-MEL-2; conditions: Homo sapiens, SK-MEL-2, Melanoma, read-out: % Growth Inhibition (GI%)
Experimental: as §1

[32] = system: SR; conditions: Homo sapiens, Leukemia, read-out: % Growth Inhibition (GI%)
Experimental: as §1

[33] = system: SW-620; conditions: Homo sapiens, SW-620, Colon Cancer, read-out: % Growth Inhibition (GI%)
Experimental: as §1

[34] = system: TK-10; conditions: Homo sapiens, TK-10, Renal Cancer, read-out: % Growth Inhibition (GI%)
Experimental: as §1

[35] = system: U251; conditions: Homo sapiens, U-251, U251, CNS Cancer, read-out: % Growth Inhibition (GI%)
Experimental: as §1

[36] = system: UO-31; conditions: Homo sapiens, UO-31, Renal Cancer, read-out: % Growth Inhibition (GI%)
Experimental: as §1

Row | SMILES | inhibition at 10 µM [1] [%] | inhibition at 10 µM [2] [%] | inhibition at 10 µM [3] [%] | inhibition at 10 µM [4] [%] | inhibition at 10 µM [5] [%] | inhibition at 10 µM [6] [%] | inhibition at 10 µM [7] [%] | inhibition at 10 µM [8] [%] | inhibition at 10 µM [9] [%] | inhibition at 10 µM [10] [%] | inhibition at 10 µM [11] [%] | inhibition at 10 µM [12] [%] | inhibition at 10 µM [13] [%] | inhibition at 10 µM [14] [%] | inhibition at 10 µM [15] [%] | inhibition at 10 µM [16] [%] | inhibition at 10 µM [17] [%] | inhibition at 10 µM [18] [%] | inhibition at 10 µM [19] [%] | inhibition at 10 µM [20] [%] | also measured
1 | Cc1ccccc1COc1ccc(-c2noc(C)c2-c2ccc(Cl)cc2)cc1 [compound 11, 4-(4-Chlorophenyl)-5-methyl-3-(4-((2-methylbenzyl)oxy)phenyl)isoxazole] | 61.4 | 50.7 | 61.8 | 29 | 22.6 | 24.9 | 13.4 | 66 | 82.3 | 48.4 | 27.4 | 40.6 | 83.1 | 47.5 | 85.6 | 32 | 68.3 | 100 | 67.2 | 42.8 | inhibition at 10 µM [21]: 26.2%; inhibition at 10 µM [22]: 2.44%; inhibition at 10 µM [23]: 45.3%; inhibition at 10 µM [24]: 74.5%; inhibition at 10 µM [25]: 60.8%; inhibition at 10 µM [26]: 12.4%; inhibition at 10 µM [27]: 24.2%; inhibition at 10 µM [28]: 29.8%; inhibition at 10 µM [29]: 24.4%; inhibition at 10 µM [30]: 29.6%; inhibition at 10 µM [31]: 62.9%; inhibition at 10 µM [32]: 66%; inhibition at 10 µM [33]: 68.3%; inhibition at 10 µM [34]: 15.7%; inhibition at 10 µM [35]: 58.7%; inhibition at 10 µM [36]: 25.6%
2 | Cc1ccccc1COc1ccc(-c2ccnn2-c2ccc(Cl)cc2)cc1 [compound 85, 1-(4-Chlorophenyl)-5-(4-((2-methylbenzyl)oxy)phenyl)-1H-pyrazole] | 42.5 | 50.5 | 57.6 | 28.8 | 11.9 | 22.9 | 10.9 | 61.9 | 86.7 | 50.7 | 25.8 | 39.1 | 82.4 | 42.5 | 86.3 | 35.7 | 68.1 | 99.2 | 73.7 | 29.7 | inhibition at 10 µM [21]: 23.4%; inhibition at 10 µM [22]: 3.12%; inhibition at 10 µM [23]: 41.7%; inhibition at 10 µM [24]: 70.9%; inhibition at 10 µM [25]: 62%; inhibition at 10 µM [26]: 8.29%; inhibition at 10 µM [27]: 24.8%; inhibition at 10 µM [28]: 39.7%; inhibition at 10 µM [29]: 19.5%; inhibition at 10 µM [30]: 30.6%; inhibition at 10 µM [31]: 60.8%; inhibition at 10 µM [32]: 66.2%; inhibition at 10 µM [33]: 70.3%; inhibition at 10 µM [34]: 16.2%; inhibition at 10 µM [35]: 54%; inhibition at 10 µM [36]: 25.6%
